Bounds are passed on as bounds.

This passage reports Ki results from US10479784B2, “Substituted pyrazin-2-amines as inhibitors of ATR kinase” (Vertex Pharmaceuticals Incorporated, priority 2008, dated 2019).

Chain of full-length ATR (Q13535 whole entry): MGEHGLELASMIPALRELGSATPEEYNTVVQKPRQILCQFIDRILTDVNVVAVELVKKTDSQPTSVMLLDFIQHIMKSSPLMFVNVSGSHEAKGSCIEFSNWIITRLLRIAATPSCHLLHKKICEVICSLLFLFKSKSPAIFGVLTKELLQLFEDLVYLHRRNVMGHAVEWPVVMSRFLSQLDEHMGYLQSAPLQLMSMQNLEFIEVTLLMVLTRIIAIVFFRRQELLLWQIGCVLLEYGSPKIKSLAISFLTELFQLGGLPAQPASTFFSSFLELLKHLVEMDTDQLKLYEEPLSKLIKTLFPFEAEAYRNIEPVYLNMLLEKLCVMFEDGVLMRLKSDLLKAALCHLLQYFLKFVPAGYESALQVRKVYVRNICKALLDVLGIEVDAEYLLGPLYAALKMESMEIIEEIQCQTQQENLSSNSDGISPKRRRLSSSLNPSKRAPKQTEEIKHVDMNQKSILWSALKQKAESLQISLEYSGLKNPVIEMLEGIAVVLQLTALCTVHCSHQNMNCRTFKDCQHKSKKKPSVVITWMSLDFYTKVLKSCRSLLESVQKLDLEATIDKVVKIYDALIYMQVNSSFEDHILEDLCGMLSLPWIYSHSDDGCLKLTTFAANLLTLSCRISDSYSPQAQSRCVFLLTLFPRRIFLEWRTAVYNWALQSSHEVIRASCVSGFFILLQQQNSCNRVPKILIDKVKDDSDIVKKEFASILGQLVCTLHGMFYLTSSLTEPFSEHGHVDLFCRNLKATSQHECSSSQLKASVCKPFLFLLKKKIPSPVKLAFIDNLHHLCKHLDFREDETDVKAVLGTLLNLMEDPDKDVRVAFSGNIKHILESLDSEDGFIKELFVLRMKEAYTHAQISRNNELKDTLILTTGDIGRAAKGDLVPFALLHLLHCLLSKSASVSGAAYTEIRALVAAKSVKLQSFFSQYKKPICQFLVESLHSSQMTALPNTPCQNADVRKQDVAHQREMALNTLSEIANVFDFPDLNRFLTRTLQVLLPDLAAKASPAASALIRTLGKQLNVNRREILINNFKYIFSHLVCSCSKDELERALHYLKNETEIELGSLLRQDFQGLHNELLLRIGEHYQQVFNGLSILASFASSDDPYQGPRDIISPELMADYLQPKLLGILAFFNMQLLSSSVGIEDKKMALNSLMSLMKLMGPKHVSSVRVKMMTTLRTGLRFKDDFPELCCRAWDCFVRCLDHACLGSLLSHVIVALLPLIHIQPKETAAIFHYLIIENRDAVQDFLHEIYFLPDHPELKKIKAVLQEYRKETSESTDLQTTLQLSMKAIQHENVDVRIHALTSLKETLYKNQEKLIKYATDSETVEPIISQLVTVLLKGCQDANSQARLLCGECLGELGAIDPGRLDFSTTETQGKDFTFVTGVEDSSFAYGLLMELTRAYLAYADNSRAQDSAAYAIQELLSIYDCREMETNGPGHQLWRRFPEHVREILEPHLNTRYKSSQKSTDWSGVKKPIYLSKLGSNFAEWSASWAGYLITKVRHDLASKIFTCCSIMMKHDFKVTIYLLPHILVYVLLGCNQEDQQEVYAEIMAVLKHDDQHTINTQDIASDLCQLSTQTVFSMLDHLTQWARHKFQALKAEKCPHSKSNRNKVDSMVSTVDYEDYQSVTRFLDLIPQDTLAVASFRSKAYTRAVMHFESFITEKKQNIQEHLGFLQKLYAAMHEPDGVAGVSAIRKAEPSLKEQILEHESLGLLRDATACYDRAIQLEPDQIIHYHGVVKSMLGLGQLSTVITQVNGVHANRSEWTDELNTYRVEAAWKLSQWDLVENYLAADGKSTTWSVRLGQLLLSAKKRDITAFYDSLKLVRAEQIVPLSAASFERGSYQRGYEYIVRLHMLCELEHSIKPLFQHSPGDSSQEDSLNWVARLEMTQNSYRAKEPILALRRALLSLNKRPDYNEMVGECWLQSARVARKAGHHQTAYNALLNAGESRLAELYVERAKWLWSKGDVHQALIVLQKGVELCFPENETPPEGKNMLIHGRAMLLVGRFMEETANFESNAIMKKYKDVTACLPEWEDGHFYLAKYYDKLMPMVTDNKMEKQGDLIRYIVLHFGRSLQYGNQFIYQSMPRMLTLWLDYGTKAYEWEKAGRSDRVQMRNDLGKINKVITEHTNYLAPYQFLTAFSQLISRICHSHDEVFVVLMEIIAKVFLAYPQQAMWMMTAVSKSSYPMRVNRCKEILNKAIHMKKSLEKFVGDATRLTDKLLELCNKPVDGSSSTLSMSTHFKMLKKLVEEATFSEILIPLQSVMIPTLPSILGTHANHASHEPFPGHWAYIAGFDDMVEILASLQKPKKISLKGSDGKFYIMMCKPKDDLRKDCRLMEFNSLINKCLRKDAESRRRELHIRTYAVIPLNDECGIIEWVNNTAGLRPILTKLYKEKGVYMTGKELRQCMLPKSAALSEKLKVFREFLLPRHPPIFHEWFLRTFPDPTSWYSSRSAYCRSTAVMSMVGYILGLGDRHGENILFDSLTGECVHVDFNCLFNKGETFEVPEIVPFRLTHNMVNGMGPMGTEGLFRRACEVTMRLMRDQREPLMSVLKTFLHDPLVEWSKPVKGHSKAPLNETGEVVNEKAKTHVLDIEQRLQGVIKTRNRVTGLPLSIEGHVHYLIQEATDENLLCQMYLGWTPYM

The target in this test is full-length ATR (Homo sapiens (Human), UniProt Q13535). Kind of test: ATR Inhibition Assay (radioactive-phosphate incorporation). Particulars: read-out: ATR Ki. It is filed as biochemical. On the procedure:
Compounds were screened for their ability to inhibit ATR kinase using a radioactive-phosphate incorporation assay. Assays were carried out in a mixture of 50 mM Tris/HCl (pH 7.5), 10 mM MgCl2 and 1 mM DTT. Final substrate concentrations were […] [γ-33P]ATP (3mCi 33P ATP/mmol ATP, Perkin Elmer) and 800 μM target peptide ([…]).
Assays were carried out at 25° C. in the presence of 5 nM full-length ATR. An assay stock buffer solution was prepared containing all of the reagents listed above, with the exception of ATP and the test compound of interest. […] The plate was pre-incubated for 10 minutes at 25° C. and the reaction initiated by addition of 15 μL [γ-33P]ATP (final concentration 10 μM).
The reaction was stopped after […] by the addition of 30 μL 0.1M phosphoric acid containing 2 mM ATP. A multiscreen phosphocellulose filter 96-well plate (Millipore, Cat no. MAPHN0B50) was pretreated with 100 μL 0.2M phosphoric acid prior to the addition of 45 μL of the stopped assay mixture. […] After drying, 100 μL Optiphase ‘SuperMix’ liquid scintillation cocktail (Perkin Elmer) was added to the well prior to scintillation counting (1450 Microbeta Liquid Scintillation Counter, Wallac).
After removing mean background values for all of the data points, Ki(app) data were calculated from non-linear regression analysis of the initial rate data using the Prism software package (GraphPad Prism version 3.0cx for Macintosh, GraphPad Software, San Diego Calif., USA).
With `Nc1ncc(-c2ccc(C(=O)N3CCNCC3)cc2)nc1C(=O)Nc1ccccc1` [Compound I-74, 3-amino-N-phenyl-6-(4-(piperazine-1-carbonyl)phenyl)pyrazine-2-carboxamide], the inhibition constant (Ki) is 10 to 100 nM.

`CC(=O)Nc1cccc(NC(=O)c2nc(-c3cccnc3)cnc2N)c1` [Compound I-95, 3-amino-N-(3-ethanamidophenyl)-6-(pyridin-3-yl)pyrazine-2-carboxamide]: the Ki lay within 100 to 5000 nM. Next, `CC(C)S(=O)(=O)c1ccc(-c2cnc(N)c(-c3nnc(NC(=O)[C@@H]4CCCCN4)o3)n2)cc1` [IA-211, (2S)—N-[5-[3-amino-6-(4-isopropylsulfonylphenyl)pyrazin-2-yl]-1,3,4-oxadiazol-2-yl]piperidine-2-carboxamide]: 100 to 5000 nM; `Cn1c(NC(=O)c2nc(-c3ccc(C(=O)N4CCCNCC4)cc3)cnc2N)nc2ccccc21` [Compound V-7]: 100 to 5000 nM; `CN(C)C(=O)c1ccc(-c2cnc(N)c(-c3nnc(-c4ccncc4)o3)n2)cc1` [IA-67]: 10 to 100 nM.

Consider `CNCc1ccc(-c2nnc(-c3nc(-c4ccc(C(=O)N(C)C)cc4)cnc3N)o2)cc1` [IA-281, 4-[5-amino-6-[5-[4-(methylaminomethyl)phenyl]-1,3,4-oxadiazol-2-yl]pyrazin-2-yl]-N,N-dimethyl-benzamide], for which the inhibition constant (Ki) was at most 10 nM. Turning to `CS(=O)(=O)c1ccc(-c2cnc(N)c(-c3nc4ccc(C#N)cc4[nH]3)n2)cc1` [Compound I-111, 2-(3-amino-6-(4-(methylsulfonyl)phenyl)pyrazin-2-yl)-1H-benzo[d]imidazole-6-carbonitrile], the Ki lay in the range of 10 to 100 nM. Regarding `CNC(C)c1ccc(-c2nnc(-c3nc(-c4ccc(S(=O)(=O)C(C)C)cc4)cnc3N)o2)cc1` (stereo not drawn) [IA-212, 5-(4-isopropylsulfonylphenyl)-3-[5-[4-[1-(methylamino)ethyl]phenyl]-1,3,4-oxadiazol-2-yl]pyrazin-2-amine], the Ki was at most 10 nM. As to `Nc1ncc(-c2ccc(N3CCOCC3)nc2)nc1C(=O)Nc1ccccc1` [Compound I-34, 3-amino-6-(6-morpholinopyridin-3-yl)-N-phenylpyrazine-2-carboxamide], the inhibition constant Ki is 10 to 100 nM. Then `CN(C)C(=O)c1ccc(-c2cnc(N)c(-c3nnc(NC4CCNCC4)o3)n2)cc1` [IA-54], with 100 to 5000 nM; and `Nc1ncc(-c2ccc(C(=O)NCCN3CCCC3)cc2)nc1C(=O)Nc1ccccc1` [Compound I-46, 3-amino-N-phenyl-6-(4-(2-(pyrrolidin-1-yl)ethylcarbamoyl)phenyl) pyrazine-2-carboxamide], with 100 to 5000 nM; and `CNCc1cccc(NC(=O)c2nc(-c3ccc(S(=O)(=O)C(C)C)cc3)cnc2N)c1` [VII-12], with at most 10 nM.

For `Cc1ccccc1-c1cnc(N)c(C(=O)Nc2ccccc2)n1` [Compound I-11, 3-amino-N-phenyl-6-o-tolylpyrazine-2-carboxamide], the Ki was 100 to 5000 nM. Then `Nc1ncc(-c2ccc3[nH]ncc3c2)nc1C(=O)Nc1ccccc1` [Compound I-39, 3-amino-6-(1H-indazol-5-yl)-N-phenylpyrazine-2-carboxamide], with 10 to 100 nM; and `C#Cc1ccccc1-c1cnc(N)c(-c2nnc(-c3ccccc3)o2)n1` [IA-194, 5-(2-ethynylphenyl)-3-(5-phenyl-1,3,4-oxadiazol-2-yl)pyrazin-2-amine], with 100 to 5000 nM. Take `CC(C)S(=O)(=O)c1ccc(-c2cnc(N)c(-c3nnc(NCCCN)o3)n2)cc1` [IA-97, N-[5-[3-amino-6-(4-isopropylsulfonylphenyl)pyrazin-2-yl]-1,3,4-oxadiazol-2-yl]propane-1,3-diamine]: the inhibition constant Ki was 10 to 100 nM. Next, `Cc1ccc2nc(-c3nc(-c4ccc(C(=O)N5CCCN(C(=O)OC(C)(C)C)CC5)cc4)cnc3N)[nH]c2c1` [Compound I-147, tert-butyl 4-(4-(5-amino-6-(6-methyl-1H-benzo[d]imidazol-2-yl)pyrazin-2-yl)phenylcarbonyl)-1,4-diazepane-1-carboxylate]: at most 10 nM; `Nc1ncc(-c2ccc(C(=O)NCCN3CCCC3)cc2)nc1-c1nc2ccccc2[nH]1` [Compound I-133, 4-(5-amino-6-(1H-benzo[d]imidazol-2-yl)pyrazin-2-yl)-N-(2-(pyrrolidin-1-yl)ethyl)benzamide]: 10 to 100 nM. Turning to `Nc1ncc(-c2cccc3ccccc23)nc1-c1nnc(-c2ccccc2)o1` [IA-93, 5-(1-naphthyl)-3-(5-phenyl-1,3,4-oxadiazol-2-yl)pyrazin-2-amine], the inhibition constant Ki lay in the range of 100 to 5000 nM.

With `CN(C)C(=O)c1ccc(-c2cnc(N)c(-c3nnc(-c4ccccc4OCCNC(=O)OC(C)(C)C)o3)n2)cc1` [IA-175, tert-butyl N-[2-[2-[5-[3-amino-6-[4-(dimethylcarbamoyl)phenyl]pyrazin-2-yl]-1,3,4-oxadiazol-2-yl]phenoxy]ethyl]carbamate], the inhibition constant (Ki) is at most 10 nM.

Consider `CN(C)C(=O)c1ccc(-c2cnc(N)c(-c3nnc(-c4ccccc4)o3)n2)c(C(F)F)c1` [IA-126, 4-[5-amino-6-(5-phenyl-1,3,4-oxadiazol-2-yl)pyrazin-2-yl]-3-(difluoromethyl)-N,N-dimethyl-benzamide], for which the Ki was at most 10 nM.

`Nc1ncc(-c2ccc(C(=O)N3CCCNCC3)cc2)nc1-c1cc(-c2ccccc2)no1` [IIA-3]: the Ki is at most 10 nM. Next, `CN(C)C(=O)c1ccc(-c2cnc(N)c(-c3nnc(-c4ccsc4)o3)n2)cc1` [IA-262, 4-[5-amino-6-[5-(3-thienyl)-1,3,4-oxadiazol-2-yl]pyrazin-2-yl]-N,N-dimethyl-benzamide]: at most 10 nM.

As for `CN(C)C(=O)c1ccc(-c2cnc(N)c(-c3nnc(Nc4ccc(Cl)cc4)o3)n2)cc1` [IA-42], the Ki fell in the range of 10 to 100 nM. For `COc1ccccc1NC(=O)c1nc(-c2ccoc2)cnc1N` [Compound I-37, 3-amino-6-(furan-3-yl)-N-(2-methoxyphenyl)pyrazine-2-carboxamide], the Ki is 10 to 100 nM. Next, `CNCc1ccc(-c2cc(-c3nc(-c4ccc(S(=O)(=O)C(C)C)cc4)cnc3N)on2)cc1Cl` [IIA-13, 3-[3-[3-chloro-4-(methylaminomethyl)phenyl]isoxazol-5-yl]-5-(4-isopropylsulfonylphenyl)pyrazin-2-amine]: at most 10 nM. Next, `CC(C)S(=O)(=O)c1ccc(-c2cnc(N)c(-c3nnc(-c4ccc(N)cc4)o3)n2)cc1` [IA-201, 3-[5-(4-aminophenyl)-1,3,4-oxadiazol-2-yl]-5-(4-isopropylsulfonylphenyl)pyrazin-2-amine]: at most 10 nM. Then `CCC(C)S(=O)(=O)c1ccc(-c2cnc(N)c(-c3nnc(-c4ccc(CNC)cc4F)o3)n2)cc1` (stereo not drawn) [IA-338, 3-[5-[2-fluoro-4-(methylaminomethyl)phenyl]-1,3,4-oxadiazol-2-yl]-5-(4-sec-butylsulfonylphenyl)pyrazin-2-amine], with at most 10 nM; and `NCCSc1ccccc1-c1cnc(N)c(-c2nnc(-c3ccccc3)o2)n1` [IA-224, 5-(2-(2-aminoethylthio)phenyl)-3-(5-phenyl-1,3,4-oxadiazol-2-yl)pyrazin-2-amine], with 100 to 5000 nM; and `CN(C)C(=O)c1ccc(-c2cnc(N)c(-c3nnc(Nc4ccccc4)o3)n2)cc1` [IA-32], with 10 to 100 nM. For the compound `CC(C)S(=O)(=O)c1ccc(-c2cnc(N)c(-c3nnc(-c4ccc(CN)cc4)o3)n2)cc1` [IA-222, 3-[5-[4-(aminomethyl)phenyl]-1,3,4-oxadiazol-2-yl]-5-(4-isopropylsulfonylphenyl)pyrazin-2-amine], the Ki was at most 10 nM. `Cc1ccccc1NC(=O)c1nc(-c2cccnc2)cnc1N` [Compound I-91, 3-amino-6-(pyridin-3-yl)-N-o-tolylpyrazine-2-carboxamide]: the Ki lay in the range of 100 to 5000 nM.

On to `CC(C)S(=O)(=O)c1ccc(-c2cnc(N)c(-c3nnc(-c4ccccc4O)o3)n2)cc1` [IA-235, 2-[5-[3-amino-6-(4-isopropylsulfonylphenyl)pyrazin-2-yl]-1,3,4-oxadiazol-2-yl]phenol], for which the Ki is at most 10 nM.

On to `Nc1ncc(-c2ccc(S(=O)(=O)NCCO)cc2)nc1-c1nnc(-c2ccccc2)o1` [IA-26], for which the Ki is at most 10 nM. Next, `COc1ccc(C)cc1NC(=O)c1nc(-c2cccnc2)cnc1N` [Compound I-108, 3-amino-N-(2-methoxy-5-methylphenyl)-6-(pyridin-3-yl)pyrazine-2-carboxamide]: at most 10 nM; `Nc1ncc(-c2ccc(C(=O)N3CCCNCC3)cc2)nc1C(=O)Nc1nc2ccccc2[nH]1` [Compound V-10]: at most 10 nM.

For `N#CCCN1CCN(C(=O)c2ccc(-c3cnc(N)c(C(=O)Nc4ccccc4)n3)cc2)CC1` [Compound I-81, 3-amino-6-(4-(4-(2-cyanoethyl)piperazine-1-carbonyl)phenyl)-N-phenylpyrazine-2-carboxamide], the Ki was at most 10 nM. `CC(C)S(=O)(=O)c1ccc(-c2cnc(N)c(-c3nnc(-c4ccc(CN[C@@H](C)CO)cc4F)o3)n2)cc1` [IA-335, (S)-2-(4-(5-(3-amino-6-(4-(isopropylsulfonyl)phenyl)pyrazin-2-yl)-1,3,4-oxadiazol-2-yl)-3-fluorobenzylamino)propan-1-ol]: the Ki is at most 10 nM. Next, `NC(=O)c1ccc(-c2cnc(N)c(-c3nnc(-c4ccccc4)o3)n2)cc1` [IA-218, 4-[5-amino-6-(5-phenyl-1,3,4-oxadiazol-2-yl)pyrazin-2-yl]benzamide]: 10 to 100 nM.
